Measured values: publication PMC5856786, “A DHODH inhibitor increases p53 synthesis and enhances tumor cell killing by p53 degradation blockage” (Nature Communications, 2018)

How the values were obtained:
[1] = tested on: p53-dependent transcription in ARN8 human melanoma cells; experiment: p53-dependent transcription reporter (CPRG assay) in ARN8 cells; assay type: cell-based; details: ARN8, 16 h
Method: A 20,000 compound library was purchased from ChemBridge consisting of 10,000 from the DIVERSet and 10,000 from the CombiSet libraries. […] A total of 30,000 additional compounds from the ChemBridge DIVERSet that were previously screened in a T22 cell background[12] were re-screened in ARN8 cells at 5 µM. The ChemBridge codes for these compounds can be made available upon request. All chemical synthesis is detailed in Supplementary Information with NMR spectra and reaction schemes detailed in Supplementary Figs. 13–19.

[2] = tested on: ARN8 cells; experiment: Giemsa staining of ARN8 cultures (uridine, orotic acid, dihydroorotic acid supplementation); assay type: cell-based, human; details: 72 h, 2.5 or 5 μM uridine, serum replacement medium
Method: Additionally, ARN8 cells were treated for 16 h and p53-dependent transcription was measured by CPRG assay. Values correspond to the average of three technical repeats ± SD. c Simplified description of the pyrimidine nucleotide de novo (blue) and salvage (black) pathways. d ARN8 cells were seeded in FBS supplemented DMEM with a change to serum replacement medium 24 h post seeding. […] Values correspond to the average of three technical repeats ± SD. f ARN8 cells were seeded in FBS supplemented DMEM with a change to serum replacement medium 24 h post seeding.

[3] = tested on: ARN8 xenograft; experiment: ARN8 subcutaneous xenograft; assay type: in vivo; details: for toxicity in xenograft study: mice, (R)-HZ00 150 mg kg−1 i.p. q.d., nutlin-3 100 mg kg−1 p.o. q.d.
Method: All animal xenograft experiments were approved by the Norwegian Animal Research Authority and conducted according to The European Convention for the Protection of Vertebrates Used for Scientific Purposes. […] The health status and weight of the mice were monitored daily and they were randomized in a non-blinded manner into 4 groups when tumor volumes reached 30–40 mm^3. […] Tumor volumes were measured every second day by a digital caliper using the following ellipsoid formula: Volume = π (length × width × height)/6.
To determine the efficacy of (R)-HZ05 in combination with nutlin-3a, 4 groups of NSG mice (n = 8 per group) were subcutaneously injected in the flank region with a single 100 μL injection of 2 × 10^6 ARN8 cells in a solution of PBS:Matrigel (volume ratio 3:1). Treatment was initiated when tumors reached ~50 mm^3. The maximum tolerated dose for this combination of drugs was previously determined for the strain we used. The endpoint of the experiment was determined by the tumor size ([…]) weight loss, and general condition of the mice according to The Norwegian Animal Research Authority.

[4] = biological target: CDK1/CycA2 (Homo sapiens, UniProt P06493); experiment: biochemical; set-up: radiometric 33PanQinase protein kinase activity assay, CDK/cyclin panel, per cent remaining activity; details: read-out: (R)-HZ00 10 µM Average (% remaining activity)
From the text: (§1) Supplementary Table 1. In vitro inhibition (% remaining activity) of cyclin-dependent
(§2) ProQinase GmbH (Freiburg, Germany) using a radiometric protein kinase assay
(§3) (33PanQinase® Activity Assay).
(§4) (1 picture or pasted object on this page, not shown here) 32 Supplementary Table 1. In vitro inhibition (% remaining activity) of cyclin-dependent kinases (CDKs).

[5] = biological target: CDK1/CycB1 (Homo sapiens, UniProt P06493); experiment: biochemical; set-up: radiometric 33PanQinase protein kinase activity assay, CDK/cyclin panel, per cent remaining activity; details: read-out: (R)-HZ00 10 µM Average (% remaining activity)
From the text: as §1, §2, §3, §4

[6] = biological target: CDK1/CycE1 (Homo sapiens, UniProt P06493); experiment: biochemical; set-up: radiometric 33PanQinase protein kinase activity assay, CDK/cyclin panel, per cent remaining activity; details: read-out: (R)-HZ00 10 µM Average (% remaining activity)
From the text: as §1, §2, §3, §4

[7] = biological target: CDK2/CycA2 (Homo sapiens, UniProt P24941); experiment: biochemical; set-up: radiometric 33PanQinase protein kinase activity assay, CDK/cyclin panel, per cent remaining activity; details: read-out: (R)-HZ00 10 µM Average (% remaining activity)
From the text: as §1, §2, §3, §4

[8] = biological target: CDK2/CycE1 (Homo sapiens, UniProt P24941); experiment: biochemical; set-up: radiometric 33PanQinase protein kinase activity assay, CDK/cyclin panel, per cent remaining activity; details: read-out: (R)-HZ00 10 µM Average (% remaining activity)
From the text: as §1, §2, §3, §4

[9] = biological target: CDK3/CycE1 (Homo sapiens, UniProt Q00526); experiment: biochemical; set-up: radiometric 33PanQinase protein kinase activity assay, CDK/cyclin panel, per cent remaining activity; details: read-out: (R)-HZ00 10 µM Average (% remaining activity)
From the text: as §1, §2, §3, §4

[10] = biological target: CDK4/CycD1 (Homo sapiens, UniProt P11802); experiment: biochemical; set-up: radiometric 33PanQinase protein kinase activity assay, CDK/cyclin panel, per cent remaining activity; details: read-out: (R)-HZ00 10 µM Average (% remaining activity)
From the text: as §1, §2, §3, §4

[11] = biological target: CDK4/CycD3 (Homo sapiens, UniProt P11802); experiment: biochemical; set-up: radiometric 33PanQinase protein kinase activity assay, CDK/cyclin panel, per cent remaining activity; details: read-out: (R)-HZ00 10 µM Average (% remaining activity)
From the text: as §1, §2, §3, §4

[12] = biological target: T1, CDK5/p25NCK (Homo sapiens, UniProt Q00535); experiment: biochemical; set-up: radiometric 33PanQinase protein kinase activity assay, CDK/cyclin panel, per cent remaining activity; details: read-out: (R)-HZ00 10 µM Average (% remaining activity)
T1 construct: p25
From the text: as §1, §2, §3, §4

[13] = biological target: T2, CDK5/p35NCK (Homo sapiens, UniProt Q00535); experiment: biochemical; set-up: radiometric 33PanQinase protein kinase activity assay, CDK/cyclin panel, per cent remaining activity; details: read-out: (R)-HZ00 10 µM Average (% remaining activity)
T2 construct: p35
From the text: as §1, §2, §3, §4

[14] = biological target: CDK6/CycD1 (Homo sapiens, UniProt Q00534); experiment: biochemical; set-up: radiometric 33PanQinase protein kinase activity assay, CDK/cyclin panel, per cent remaining activity; details: read-out: (R)-HZ00 10 µM Average (% remaining activity)
From the text: as §1, §2, §3, §4

[15] = biological target: CDK7/CycH/MAT1 (Homo sapiens, UniProt P50613); experiment: biochemical; set-up: radiometric 33PanQinase protein kinase activity assay, CDK/cyclin panel, per cent remaining activity; details: read-out: (R)-HZ00 10 µM Average (% remaining activity)
From the text: as §1, §2, §3, §4

[16] = biological target: CDK8/CycC (Homo sapiens, UniProt P49336); experiment: biochemical; set-up: radiometric 33PanQinase protein kinase activity assay, CDK/cyclin panel, per cent remaining activity; details: read-out: (R)-HZ00 10 µM Average (% remaining activity)
From the text: as §1, §2, §3, §4

[17] = biological target: CDK9/CycK (Homo sapiens, UniProt P50750); experiment: biochemical; set-up: radiometric 33PanQinase protein kinase activity assay, CDK/cyclin panel, per cent remaining activity; details: read-out: (R)-HZ00 10 µM Average (% remaining activity)
From the text: as §1, §2, §3, §4

[18] = biological target: CDK9/CycT1 (Homo sapiens, UniProt P50750); experiment: biochemical; set-up: radiometric 33PanQinase protein kinase activity assay, CDK/cyclin panel, per cent remaining activity; details: read-out: (R)-HZ00 10 µM Average (% remaining activity)
From the text: as §1, §2, §3, §4

[19] = biological target: T3, PCTAIRE1/CycY (Homo sapiens, UniProt Q00536); experiment: biochemical; set-up: radiometric 33PanQinase protein kinase activity assay, CDK/cyclin panel, per cent remaining activity; details: read-out: (R)-HZ00 10 µM Average (% remaining activity)
T3 construct: gene CDK16
From the text: as §1, §2, §3, §4

[20] = Pharmacokinetic study, nutlin-3 single or co-administered with (R)-HZ00; assay type: in vivo, NOD-SCID mice; details: mice; nutlin-3 100 mg kg-1 oral + (R)-HZ00 150 mg kg-1 i.p.
Method: Waters Acquity UPLC (Waters Corp.) was used for all LC/MS and LC/MS/MS experiments. For chromatographic separation a general gradient was used (5 % mobile phase B to 90 % over 2 min total run) on a C18 BEH 1.7 µm column 2 × 50 mm (Waters Corp.). Mobile phase A consisted of 5 % acetonitrile 0.1 % formic acid and mobile phase B 100 % acetonitrile 0.1 % formic acid. The flow rate was 0.5 mL min-1 and 3 µL of the sample was injected. A standard curve between 3−1000 nM was prepared for each compound.
Cocrystallization, data collection and structure determination of DHODH with inhibitor HZ05 Co-crystals were prepared similar to previously described6. In short 18 mg mL-1 DHODH (dissolved in 10 mM N,N-dimethylundecylamine N-oxide (C11DAO) (Fluka), 400 mM NaCl, 1 mM EDTA, 100 mM HEPES (pH 7), and 30 % glycerol) was mixed in a 1:1 ratio with 2 M NH4SO4, 0.1 M Na Acetate pH 4.8, 30 mM N,N-dimethyldodecylamine N-oxide (DDAO), 15 mM C11DAO, 2 mM L-dihydroorotic acid, 1 mM HZ05 and 6 % DMSO. The crystals did grow from hanging drops at 20°C in a VDX plate; 2.5 µL protein solution mixed with 2.5 µL reservoir (30 % (v/v) glycerol, 0.1 M Na acetate pH 4.8 and 2 M NH4SO4). A crystal was flashfrozen in liquid nitrogen and data was collected to 1.7 Å at Diamond Light Source beamline i02. The structure was determined using Molecular Replacement and refined in Refmac57. […]

Sequence of CDK9/CycK (P50750 whole entry): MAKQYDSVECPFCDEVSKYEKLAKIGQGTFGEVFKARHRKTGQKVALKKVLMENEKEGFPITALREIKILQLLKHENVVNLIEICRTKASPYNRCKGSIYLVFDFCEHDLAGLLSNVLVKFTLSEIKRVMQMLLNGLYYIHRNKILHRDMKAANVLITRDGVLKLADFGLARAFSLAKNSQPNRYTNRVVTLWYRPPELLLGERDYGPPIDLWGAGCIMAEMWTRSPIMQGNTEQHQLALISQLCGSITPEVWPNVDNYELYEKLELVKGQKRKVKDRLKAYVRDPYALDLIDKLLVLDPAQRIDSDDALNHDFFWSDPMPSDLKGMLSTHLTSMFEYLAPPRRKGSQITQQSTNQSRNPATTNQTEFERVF
Sequence of CDK9/CycK (O75909 whole entry partner): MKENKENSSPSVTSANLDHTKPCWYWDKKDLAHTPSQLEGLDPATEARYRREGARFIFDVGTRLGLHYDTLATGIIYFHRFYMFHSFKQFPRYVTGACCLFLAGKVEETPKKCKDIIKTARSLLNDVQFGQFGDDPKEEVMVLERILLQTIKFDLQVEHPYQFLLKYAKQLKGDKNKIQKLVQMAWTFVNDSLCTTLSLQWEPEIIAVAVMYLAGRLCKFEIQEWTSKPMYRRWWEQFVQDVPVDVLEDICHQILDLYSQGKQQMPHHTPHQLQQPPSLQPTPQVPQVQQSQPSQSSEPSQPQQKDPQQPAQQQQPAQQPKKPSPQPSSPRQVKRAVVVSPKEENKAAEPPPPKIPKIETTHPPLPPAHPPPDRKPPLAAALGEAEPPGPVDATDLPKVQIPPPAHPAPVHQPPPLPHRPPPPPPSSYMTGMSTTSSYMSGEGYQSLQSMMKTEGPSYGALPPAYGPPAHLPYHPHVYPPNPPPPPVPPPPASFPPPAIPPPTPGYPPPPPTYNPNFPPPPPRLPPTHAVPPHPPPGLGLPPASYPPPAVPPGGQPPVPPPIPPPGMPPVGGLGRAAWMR
Sequence of CDK9/CycT1 (P50750 whole entry): as the sequence (P50750 whole entry) above
Sequence of CDK9/CycT1 (O60563 whole entry partner): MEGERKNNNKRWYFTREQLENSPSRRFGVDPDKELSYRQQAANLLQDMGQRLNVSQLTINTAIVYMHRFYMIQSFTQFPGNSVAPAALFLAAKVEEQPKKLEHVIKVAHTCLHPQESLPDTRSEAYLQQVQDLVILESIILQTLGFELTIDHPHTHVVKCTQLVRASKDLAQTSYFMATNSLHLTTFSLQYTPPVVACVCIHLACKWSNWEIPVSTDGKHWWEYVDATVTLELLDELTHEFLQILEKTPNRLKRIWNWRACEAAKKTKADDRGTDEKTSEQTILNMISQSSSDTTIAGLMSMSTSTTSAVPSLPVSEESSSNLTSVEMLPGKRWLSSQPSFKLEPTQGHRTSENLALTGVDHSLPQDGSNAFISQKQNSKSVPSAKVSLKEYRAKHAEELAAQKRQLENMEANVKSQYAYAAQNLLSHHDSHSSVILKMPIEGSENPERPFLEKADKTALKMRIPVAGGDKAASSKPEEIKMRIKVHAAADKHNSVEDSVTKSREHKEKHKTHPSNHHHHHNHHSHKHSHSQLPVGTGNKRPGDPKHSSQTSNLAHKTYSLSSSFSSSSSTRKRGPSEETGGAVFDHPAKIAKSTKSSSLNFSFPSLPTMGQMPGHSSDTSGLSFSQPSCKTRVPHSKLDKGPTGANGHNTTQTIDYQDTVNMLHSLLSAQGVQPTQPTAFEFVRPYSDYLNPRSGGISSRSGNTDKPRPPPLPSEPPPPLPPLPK
Sequence of CDK8/CycC (P49336 whole entry): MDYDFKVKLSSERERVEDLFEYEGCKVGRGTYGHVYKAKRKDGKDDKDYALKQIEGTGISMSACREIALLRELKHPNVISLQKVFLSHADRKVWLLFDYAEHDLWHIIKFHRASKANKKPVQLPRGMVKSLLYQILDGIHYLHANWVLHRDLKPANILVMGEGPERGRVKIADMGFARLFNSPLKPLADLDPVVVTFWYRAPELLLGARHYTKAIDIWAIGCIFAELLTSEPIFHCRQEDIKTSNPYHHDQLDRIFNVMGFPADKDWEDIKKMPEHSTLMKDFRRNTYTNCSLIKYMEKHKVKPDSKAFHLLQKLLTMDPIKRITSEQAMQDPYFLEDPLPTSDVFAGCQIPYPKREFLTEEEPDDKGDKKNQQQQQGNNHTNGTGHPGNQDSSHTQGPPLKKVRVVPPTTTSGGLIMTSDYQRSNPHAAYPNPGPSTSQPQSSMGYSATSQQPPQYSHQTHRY
Sequence of CDK8/CycC (P24863 whole entry partner): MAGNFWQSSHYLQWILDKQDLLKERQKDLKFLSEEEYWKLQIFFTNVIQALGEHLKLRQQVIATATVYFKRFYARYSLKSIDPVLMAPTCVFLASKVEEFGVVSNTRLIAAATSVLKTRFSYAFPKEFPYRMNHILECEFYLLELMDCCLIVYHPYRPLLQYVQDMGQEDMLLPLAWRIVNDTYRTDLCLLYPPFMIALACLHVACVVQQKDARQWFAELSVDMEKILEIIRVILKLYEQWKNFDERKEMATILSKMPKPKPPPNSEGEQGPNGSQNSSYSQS
T3 sequence (Q00536 whole entry): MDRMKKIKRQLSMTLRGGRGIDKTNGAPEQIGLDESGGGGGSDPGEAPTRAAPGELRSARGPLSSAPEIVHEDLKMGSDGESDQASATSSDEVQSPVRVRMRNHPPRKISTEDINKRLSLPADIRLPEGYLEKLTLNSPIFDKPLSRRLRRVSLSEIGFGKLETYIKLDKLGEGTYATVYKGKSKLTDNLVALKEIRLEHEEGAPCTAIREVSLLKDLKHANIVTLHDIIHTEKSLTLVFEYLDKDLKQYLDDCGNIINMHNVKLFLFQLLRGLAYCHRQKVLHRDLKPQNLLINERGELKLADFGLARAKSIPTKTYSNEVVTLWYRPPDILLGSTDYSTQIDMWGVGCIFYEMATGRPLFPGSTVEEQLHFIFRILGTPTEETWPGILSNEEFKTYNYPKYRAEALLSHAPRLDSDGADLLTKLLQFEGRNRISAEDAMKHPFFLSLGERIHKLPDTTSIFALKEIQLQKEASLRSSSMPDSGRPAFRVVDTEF
T3 sequence (Q8ND76 whole entry partner): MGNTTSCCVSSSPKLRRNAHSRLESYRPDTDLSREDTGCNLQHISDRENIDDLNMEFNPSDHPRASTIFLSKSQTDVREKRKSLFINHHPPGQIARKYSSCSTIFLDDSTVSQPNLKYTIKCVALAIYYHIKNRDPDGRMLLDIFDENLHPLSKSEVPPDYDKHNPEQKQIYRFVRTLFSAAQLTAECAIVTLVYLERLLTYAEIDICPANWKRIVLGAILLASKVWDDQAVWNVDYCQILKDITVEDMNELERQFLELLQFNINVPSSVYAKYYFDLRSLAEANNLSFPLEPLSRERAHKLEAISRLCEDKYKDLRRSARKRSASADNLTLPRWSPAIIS
Sequence of CDK4/CycD1 (P11802 whole entry): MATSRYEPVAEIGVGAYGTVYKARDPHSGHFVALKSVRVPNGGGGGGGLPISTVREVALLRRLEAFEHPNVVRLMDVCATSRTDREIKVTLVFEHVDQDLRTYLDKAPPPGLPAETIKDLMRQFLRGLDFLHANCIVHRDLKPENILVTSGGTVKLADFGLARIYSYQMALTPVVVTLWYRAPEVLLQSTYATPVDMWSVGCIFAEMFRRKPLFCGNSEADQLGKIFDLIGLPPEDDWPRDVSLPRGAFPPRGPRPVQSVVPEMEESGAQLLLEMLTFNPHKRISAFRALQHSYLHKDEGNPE
Sequence of CDK4/CycD1 (P24385 whole entry partner): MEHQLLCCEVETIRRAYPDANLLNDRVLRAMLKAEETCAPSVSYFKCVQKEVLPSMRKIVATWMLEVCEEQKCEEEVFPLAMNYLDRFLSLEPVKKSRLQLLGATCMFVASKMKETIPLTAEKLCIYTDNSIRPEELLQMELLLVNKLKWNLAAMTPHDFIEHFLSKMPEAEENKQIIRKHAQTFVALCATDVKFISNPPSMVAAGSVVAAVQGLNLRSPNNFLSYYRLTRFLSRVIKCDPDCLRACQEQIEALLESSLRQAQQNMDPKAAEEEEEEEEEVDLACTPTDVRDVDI
Sequence of CDK4/CycD3 (P11802 whole entry): as the sequence (P11802 whole entry) above
Sequence of CDK4/CycD3 (P30281 whole entry partner): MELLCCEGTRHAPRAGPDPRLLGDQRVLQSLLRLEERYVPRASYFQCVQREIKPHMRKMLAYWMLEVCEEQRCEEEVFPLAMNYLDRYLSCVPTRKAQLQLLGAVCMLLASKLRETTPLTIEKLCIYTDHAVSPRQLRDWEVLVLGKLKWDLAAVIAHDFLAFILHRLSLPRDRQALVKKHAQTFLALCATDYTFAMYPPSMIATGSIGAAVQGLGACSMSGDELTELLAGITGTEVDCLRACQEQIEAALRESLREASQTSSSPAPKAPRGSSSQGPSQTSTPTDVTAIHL
T2 sequence (Q00535 whole entry): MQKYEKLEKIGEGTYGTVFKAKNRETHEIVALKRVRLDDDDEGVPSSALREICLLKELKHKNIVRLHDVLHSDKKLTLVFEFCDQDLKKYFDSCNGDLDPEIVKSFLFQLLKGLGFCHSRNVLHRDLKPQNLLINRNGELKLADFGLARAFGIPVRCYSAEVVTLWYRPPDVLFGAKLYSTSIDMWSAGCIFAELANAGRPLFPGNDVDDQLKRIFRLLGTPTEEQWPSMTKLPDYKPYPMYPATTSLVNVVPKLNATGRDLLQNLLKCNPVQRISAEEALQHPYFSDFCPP
T2 sequence (Q15078 whole entry partner): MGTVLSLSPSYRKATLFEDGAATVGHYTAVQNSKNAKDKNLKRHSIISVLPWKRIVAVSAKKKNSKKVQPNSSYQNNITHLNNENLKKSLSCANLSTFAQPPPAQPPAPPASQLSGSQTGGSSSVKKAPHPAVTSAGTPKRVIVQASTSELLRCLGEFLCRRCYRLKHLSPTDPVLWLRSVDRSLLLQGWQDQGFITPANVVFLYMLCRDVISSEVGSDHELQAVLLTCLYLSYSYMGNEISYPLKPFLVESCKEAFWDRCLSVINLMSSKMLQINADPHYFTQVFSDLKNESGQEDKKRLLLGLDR

## O=C(N[C@@H]1CCCc2c1cnn2-c1ccccc1F)c1ccccn1 [(R)-HZ00]
[1]
  p53 reporter activity, (R)- versus (S)-enantiomer: significantly higher p53 reporter activity
[2]
  tumor cell growth at physiological uridine levels: markedly reduce tumor cell growth
[3]; (R)-HZ00 150 mg kg−1 i.p. q.d. + nutlin-3 100 mg kg−1 p.o. q.d.
  xenograft tumor growth, combination with nutlin-3: significant ARN8 xenograft tumor growth inhibition
[3]
  toxicity in xenograft study: not toxic
[4]
  remaining activity at 10 µM: 90.9%
[5]
  remaining activity at 10 µM: 100%
[6]
  remaining activity at 10 µM: 103%
[7]
  remaining activity at 10 µM: 101%
[8]
  remaining activity at 10 µM: 96.8%
[9]
  remaining activity at 10 µM: 90.8%
[10]
  remaining activity at 10 µM: 104%
[11]
  remaining activity at 10 µM: 98.3%
[12]
  remaining activity at 10 µM: 113%
[13]
  remaining activity at 10 µM: 101%
[14]
  remaining activity at 10 µM: 97.1%
[15]
  remaining activity at 10 µM: 105%
[16]
  remaining activity at 10 µM: 92.4%
[17]
  remaining activity at 10 µM: 95.9%
[18]
  remaining activity at 10 µM: 107%
[19]
  remaining activity at 10 µM: 95.4%

## COc1ccc(C2=N[C@@H](c3ccc(Cl)cc3)[C@@H](c3ccc(Cl)cc3)N2C(=O)N2CCNC(=O)C2)c(OC(C)C)c1 [nutlin-3, reference compound]
[3]
  toxicity in xenograft study: treatments had to be discontinued after 9 days due to the toxicity
[20]
  half-life on co-administration with (R)-HZ00: not prolonged
